Consider 91 compounds from a melting point compilation (Tetko et al.; mined from patent text by program, amines drawn as free bases though some values may be those of a salt).

Compound `CCOC(=O)c1ccc(CN2C(=O)c3ccccc3C2=O)o1` displayed a melting point of 108 to 109 °C.

`Cc1nc(CN2CCN(c3cccc(Br)c3)CC2)cs1`: the melting point came to 82 °C. On to `O=C(c1ccccc1)c1nc(Br)c(Br)[nH]1`, for which the melting point lay within 215 to 217 °C. With `COc1cc(C)c2ccccc2n1`, the melting point lay in the range of 181 to 191 °C. `CCCc1nc2c(N)nc3cccnc3c2n1CCCCCC(N)=O` showed a melting point of 216 to 218 °C. For the compound `CC(O)(Cn1ccnc1)c1ccc2c(c1)Cc1ccccc1-2` (stereo unspecified), the melting point was in the range of 183 to 184 °C.

`CC(C)N[C@@H]1CCc2c(ccc(OCc3ccccc3)c2CO)[C@H]1O` (relative stereo) came in with a melting point of 138 to 139 °C. The same measure for `COC(=O)c1ccc(/C=C/c2cnc3ccccc3c2)cc1`: 92 to 94 °C; for `COc1cccc(-n2nc(C)c3ccc([N+](=O)[O-])cc32)c1C#N`: 244 °C. `CCOC(=O)Cc1n[nH]c(=O)c2c(C)cccc12` returned a melting point of 197 to 199 °C.

Compound `CCN1C(=O)COc2ccc(-c3nn[nH]c3-c3cccc(C)n3)cc21` gave a melting point of 187 °C. As to `COC(=O)c1ccc(NC(=O)CCc2c(C)noc2-c2ccccc2)cc1`, the melting point was 140 to 141 °C. Consider `CCOC(=O)NCCC(c1cc(F)ccc1F)S(=O)(=O)c1ccc(Cl)cc1` (stereo unspecified), for which the melting point lay within 121 to 122 °C. The compound `COc1cccc2c1CCC(C(=O)O)C2C(=O)O` (stereo unspecified) displayed a melting point of 200 to 201 °C.

In turn, `COC(=O)c1ccccc1S(=O)(=O)NC(=O)c1cnc2c(C)cc(C)nn12` gave a melting point of 210 to 212 °C. `Cc1cccc(-n2nccc2-c2nn(-c3cccc(C(F)(F)F)c3)ccc2=O)c1` yielded a melting point of 142 to 143 °C. Then `CCC1c2cccn2-c2ccc(Br)cc2N1S(=O)(=O)c1ccc(O)c(C)c1` (stereo unspecified), with 191 to 193 °C.

Compound `Cc1ccc(C2NC(C(=O)O)C(C)(C)S2)cc1` (stereo unspecified) gave a melting point of 89 to 90 °C. Compound `CCN(Cc1ccccc1)C(=O)Cc1c(-c2ccc(Cl)cc2)nc2cc(C)ccn12` gave a melting point of 192 to 193 °C. Then `Cc1cccc2c1N(CC(=O)N1CC3CCC(CC3)C1)C(=O)C(NC(=O)Nc1cccc(Cl)c1)N=C2c1ccccc1F` (stereo unspecified), with over 250 °C; and `C[C@@H](NC(=O)c1ccc(-c2ccc(Cl)cc2)s1)[C@](O)(Cn1cncn1)c1ccc(F)cc1F`, with 169 to 170 °C; and `O=C1c2c(F)c(F)c(F)c(F)c2C(=O)N1c1ccc(F)cc1F`, with 145 to 146 °C. In turn, `O=C(O)[C@H]1O[C@@H]1C1CCCCC1` gave a melting point of 64 to 65 °C. `OC(CCc1ccc2c(c1)OCO2)C1CC1` (stereo unspecified) showed a melting point of 64 to 65 °C. The compound `CCCCC(NC(=O)C1CC1(C)C)C(=O)OC(C)(C)C` (racemic) gave a melting point of 52 to 65 °C.

Consider `O=c1c2cc(F)c(N3CCCC3)nc2n(-c2ccc(C(F)(F)F)cc2)c(=O)n1OCc1ccccc1`, for which the melting point lay in the range of 231 to 233 °C. `COc1ccc2cc(C(C)CC(C)=O)cc(F)c2c1` (stereo unspecified) displayed a melting point of 38 to 39 °C. For the compound `C[C@H]1CC(=O)N1c1ccc(C(=O)OCc2ccccc2)cc1`, the melting point amounted to 89 °C. For `O=C1Nc2ccc(Cl)cc2Cn2nnnc21`, the melting point fell in the range of 260 to 264 °C. The same measure for `CC(O)(C#Cc1ccc(C(=O)c2ccccn2)cc1)C(F)(F)F` (stereo unspecified): 116 to 118 °C; for `CC(C)CCCC(C)C1CCC2C3CCC4=CC(=O)C=CC4(C)C3CCC12C` (stereo unspecified): 50 to 57 °C. The same measure for `Nc1c(-c2cccs2)nsc1C(=O)O`: 221 to 224 °C. `c1ccc(CN2CC3OC(c4ccccc4)(C2)c2ccccc23)cc1` (stereo unspecified) came in with a melting point of 100 to 101 °C. Turning to `CC1=Nc2ccccc2CC(c2ccsc2)N1C` (stereo unspecified), the melting point was 113 to 117 °C. Then `Cn1cc(-c2ncc(-c3ccc4cc(OCC#N)ccc4c3)o2)c2ccccc21`, with 196 to 198 °C; and `CCOC(=O)CC(=O)CCNC(=O)OCc1ccccc1`, with 25 to 27 °C. In the case of `Cc1cc(OCC2CO2)c2c3c(c(=O)oc2c1)CCCC3` (stereo unspecified), the melting point lay within 164 to 165 °C. Then `CCNc1nc(-c2ccc(F)c3ccccc23)cc(C(C)C)n1`, with 77 to 78 °C; and `CCc1c(C(=O)O)oc2ccc(Br)cc12`, with 240 to 242 °C; and `c1ccc(C2(c3ccccc3)Oc3ccc(-c4nnn[nH]4)cc3O2)cc1`, with 212 to 215 °C.

Take `O=C(O)CN(CC(=O)O)C(=O)OCC1c2ccccc2-c2ccccc21`: the melting point is 213 to 216 °C. Consider `COc1ccc(-c2cnc(C3(c4ccc(OC)c(OC)c4)NCCc4c3[nH]c3ccccc43)nc2)cc1OC` (stereo unspecified), for which the melting point was 184 to 186 °C. `CCCCNC(=O)NS(=O)(=O)c1sccc1C` yielded a melting point of 144 to 146 °C.

Turning to `O=C1CCc2cc(Oc3ccc(F)cc3F)c([N+](=O)[O-])cc21`, the melting point was 145 °C. On to `CC(C)Cn1c(=O)n(C)c(=O)c2c(Sc3cccs3)c(Cn3cnc4ccccc43)sc21`, for which the melting point amounted to 198 °C.

On to `COC(=O)c1n[nH]c(=O)c2cc(OC)ccc12`, for which the melting point was 222 to 225 °C.

The compound `Cc1nn(C)c2c1nc(O)c1c(C(=O)O)cnn12` gave a melting point of over 300 °C. Consider `O=C(O)c1ccc(CCCC2SCC(=O)N2C/C=C\C2(O)CCCCC2)cc1` (stereo unspecified), for which the melting point lay within 118 to 120 °C. The compound `COc1ccc([C@H]2Cc3c(cccc3C(F)(F)F)NC(=O)[C@H]2O)cc1` (relative stereo) yielded a melting point of 205 to 208 °C. For `O=C1CCC(=O)N1Cc1nc2sc3c(c2c(-c2ccc(OCc4ccccc4)cc2)c1Cl)CCNC3`, the melting point lay in the range of 247 to 248 °C. As for `O=C1CCSc2sccc21`, the melting point fell in the range of 61 to 62 °C. Take `O=C(Cl)c1c2ccccc2nc2ccccc12`: the melting point is 135 °C. Consider `Nc1cnc(-c2cc(Cl)cc(Cl)c2Cl)c(N)n1`, for which the melting point is 178 to 180 °C. With `COc1ccc(C(=O)Nc2ccc(Cl)cc2)cc1N`, the melting point lay within 191 to 192 °C. With `O=C(NCCC12CC3CC(CC(C3)C1)C2)c1cccc(Cl)c1Cl`, the melting point is 158 to 159 °C. The compound `CC1(C)CCc2c(-c3ccoc3)nc3sc4c(NCc5ccccn5)ncnc4c3c2C1` had a melting point of 235 to 236 °C. As to `COC(=O)c1ccccc1Nc1cccc(C(C)N(O)C(C)=O)c1Cl` (stereo unspecified), the melting point fell in the range of 171 to 172 °C. The same measure for `CC1=C(CC(NC(=O)c2ccc(Cl)cc2)NC(=N[N+](=O)[O-])Nc2cccnc2)C(C)(C)CCC1` (stereo unspecified): 217 to 218 °C; for `CC(C)(C)OC(=O)N1CCC(Sc2cc(C(C)(C)C)c(O)c(C(C)(C)C)c2)CC1`: 151 to 152 °C. The compound `Cc1cc(C)c(NC(=S)C2(C)CCc3c(C)c(O)c(C)c(C)c3O2)cc1C` (stereo unspecified) came in with a melting point of 124 to 125 °C. The compound `O=C(c1ccc2c(=O)nc(-c3ccccn3)sc2c1)N1CCCC1` showed a melting point of 174 °C.

As to `O=C1CCN(C(=O)c2cccs2)CC1`, the melting point lay in the range of 81 to 83 °C. `CC(C)Cn1nc(C(=O)c2cccc(O)c2)c2ccccc21` displayed a melting point of 108 to 110 °C.

With `Nc1ccc(C(c2cccc(N)c2)(C(F)(F)F)C(F)(F)F)cc1`, the melting point lay in the range of 142 to 143 °C. The compound `O=C(Cl)c1cn(CCCCl)c(=O)c2ccccc12` displayed a melting point of 101 °C. As to `COc1cc(Cl)cc(CC#N)c1Cl`, the melting point lay within 53 to 57 °C. `CCOc1cc(NC(=O)C2=C(C(=O)N(CC)CC)CCCC2)ccc1Cl` registered a melting point of 98 to 100 °C.

`Cc1nc2cc3c(cc2s1)C1(CO3)C(=O)N(Cc2ncc(Cl)n2C)c2ccccc21` (stereo unspecified) had a melting point of 177 to 178 °C. Take `CCc1n[nH]c(C(N)=O)c1NC(=O)c1cc(S(C)(=O)=O)ccc1OCC(C)C`: the melting point was 154 to 162 °C. `COC(=O)c1cccn2c(I)cnc12` returned a melting point of 99 to 110 °C. Compound `CCn1c(COC(=O)OCc2nc(C(C)C)c(Sc3cc(Cl)cc(Cl)c3)n2CC)nc(C(C)C)c1Sc1cc(Cl)cc(Cl)c1` came in with a melting point of 73 to 76 °C. Then `N#Cc1cc(O)cc(OCCc2ccccn2)c1N`, with 149 to 150 °C; and `CC(C)Cc1c2c(nn1Cc1ccccc1)c(N)nc1ccccc12`, with 194 to 196 °C; and `CN(CCCCCCCNC(=O)NCCCOc1cccc(CN2CCCCC2)c1)CCN(Cc1ccc(F)cc1)c1ccccn1`, with 112 °C. `c1ccc2c3c([nH]c2c1)CCCSCC3` showed a melting point of 106 to 107 °C.

`CCCCNc1cc(C(=O)O)cc(S(N)(=O)=O)c1Oc1ccc(N)cc1` yielded a melting point of 264 °C. Regarding `C#CCOc1cccc(-c2nc3cnncc3[nH]2)c1OC`, the melting point was found to be 224 °C. Compound `Cc1ccc(C(=O)Cn2cc(Cl)cnc2=O)c(C)c1` displayed a melting point of 221 to 222 °C. On to `COC(=O)c1c(C)nc2c(c1N)c1cc(Cl)ccc1n2C`, for which the melting point fell in the range of 203 to 211 °C. `Cc1nc2c(s1)C(=O)C=C(NCCCN(C)CCCNC1=CC(=O)c3sc(C)nc3C1=O)C2=O` showed a melting point of 94 to 96 °C. Consider `N#Cc1cc(-c2ccoc2)c2ccc(OCc3cccc(-c4ccc(F)cc4)n3)cc2c1`, for which the melting point lay within 168 to 170 °C. Compound `Cc1cc(-n2cncn2)c2cccc(OCc3c(Cl)ccc(S(=O)(=O)N4CCC[C@H]4C(=O)O)c3Cl)c2n1` showed a melting point of 146 °C. With `CC(NC(Nc1cccc(C#N)c1)=C(C#N)S(=O)(=O)c1ccc(Cl)cc1)C(C)(C)C` (stereo unspecified), the melting point is 80 to 82 °C. For the compound `Cc1ccc(-c2ccc3c(c2)C=C(C(=O)N[C@H]2CC[C@H](CN(C)C4CCOCC4)CC2)CO3)cc1`, the melting point lay in the range of 141 to 143 °C. `O=C(N[C@@H](Cc1c[nH]c2ccccc12)C(=O)O)c1ccc(Cl)cc1`: the melting point fell in the range of 100 to 102 °C.

`CCCCc1ccc(CCc2ccc(-c3ccc(F)cc3F)cc2)cc1`: the melting point is 40 °C. `C1=C(c2cc3ccccc3[nH]2)Cc2ccccc21` registered a melting point of 273 to 274 °C.

`C#CCCCCCCCCC(=O)N[C@H]1CCCNC(=O)C1` yielded a melting point of 73 to 75 °C. As to `COC(=O)N[C@@H]1Cc2ccccc2N(OC)C1=O`, the melting point lay in the range of 117 to 119 °C.

`O=C(O)c1cc2nc(C(F)(F)F)ccc2n1Cc1cccc(F)c1` had a melting point of 254 to 255 °C. For `COC(=O)c1sc(C(C)C)cc1NC(=O)Nc1ccccc1`, the melting point is 108 to 110 °C.

In general, melting point refers to the temperature, or range, at which the solid turns liquid.
